Laboratory results: patent US7674594B2, “Screening assay for inhibitors of TRPA1 activation by a lower alkyl phenol” (Redpoint Bio Corporation, priority 2006, dated 2010)
Entries after “also recorded” stand apart in the source; their conditions may differ. Read-outs that look alike come from different tables or passages of the source.

Experiments:
hTRPA1 [1] = target: T1, hTRPA1 (Homo sapiens, UniProt O75762); experiment: Membrane potential dye fluorescence assay (FLIPR/FLEXstation), activation of hTRPA1 in transfected HEK293 cells; format: cell-based
T1 construct: The full length hTRPA1 was amplified by PCR with Kpn1 and Xho1 restriction enzyme sites; expressed in transfected cells; also transient transfection
T1 sequence (O75762 whole entry): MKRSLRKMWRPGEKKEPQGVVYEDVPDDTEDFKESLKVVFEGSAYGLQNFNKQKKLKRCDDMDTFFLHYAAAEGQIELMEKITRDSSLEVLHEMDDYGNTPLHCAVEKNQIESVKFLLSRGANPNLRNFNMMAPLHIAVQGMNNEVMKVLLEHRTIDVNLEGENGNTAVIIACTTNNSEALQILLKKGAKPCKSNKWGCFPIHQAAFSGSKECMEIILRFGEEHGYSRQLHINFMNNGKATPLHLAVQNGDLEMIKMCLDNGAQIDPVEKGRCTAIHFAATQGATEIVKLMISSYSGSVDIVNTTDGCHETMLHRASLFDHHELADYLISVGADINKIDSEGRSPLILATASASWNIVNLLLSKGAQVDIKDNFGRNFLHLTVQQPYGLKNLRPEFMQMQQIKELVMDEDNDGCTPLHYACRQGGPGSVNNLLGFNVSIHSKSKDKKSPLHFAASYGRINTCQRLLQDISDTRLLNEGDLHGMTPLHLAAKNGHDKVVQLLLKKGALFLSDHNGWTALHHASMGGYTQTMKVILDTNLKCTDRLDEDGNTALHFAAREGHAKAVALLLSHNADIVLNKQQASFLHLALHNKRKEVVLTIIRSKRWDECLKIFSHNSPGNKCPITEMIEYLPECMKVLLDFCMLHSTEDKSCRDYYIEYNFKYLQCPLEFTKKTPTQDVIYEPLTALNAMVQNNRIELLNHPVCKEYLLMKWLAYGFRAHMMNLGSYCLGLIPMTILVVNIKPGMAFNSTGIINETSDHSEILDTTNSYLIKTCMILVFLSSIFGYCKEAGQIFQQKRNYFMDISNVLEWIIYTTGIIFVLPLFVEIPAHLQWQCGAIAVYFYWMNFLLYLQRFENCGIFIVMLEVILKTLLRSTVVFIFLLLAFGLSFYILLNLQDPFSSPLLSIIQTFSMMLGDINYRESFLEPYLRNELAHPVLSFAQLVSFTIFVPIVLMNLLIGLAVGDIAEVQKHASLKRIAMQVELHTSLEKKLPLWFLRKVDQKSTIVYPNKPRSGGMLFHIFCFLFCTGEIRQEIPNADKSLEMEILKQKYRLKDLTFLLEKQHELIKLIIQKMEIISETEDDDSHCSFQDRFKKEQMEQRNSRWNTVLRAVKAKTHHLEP
Experimental: Once expression of TRPA1 was confirmed, 100 μl of the Blue or Red FMP dye (Molecular Devices) was added to each well of plates seeded with the transiently transfected cells. The plate was then incubated in a 37° C./5% CO2 incubator for 1 hour. The plate was read in a FLEXStation microplate reader (Molecular Devices) with an excitation of 530 nm and an emission of 565 nm. The fluorescence was monitored for 3 minutes upon exposure of the cells to a TRPA1 activating agent (e.g., cinnamaldehyde).
(§1) Samples in a 384-well plate were evaluated in a 5 minute assay on the FLIPR-Tetra™ (Molecular Devices). The assay was performed on a FLIPR™ using the excitation 510-545 nm and emission 565-625 nm filter sets. TRPA1-Transfected HEK cells, 15,000/well, were seeded overnight on poly-D-lysine coated 384 well plates in 20 μl media. Membrane Potential Assay Dye Red (Molecular Devices), 20 μl/well, was added and the plates incubated for 1 hour in a 37° C. and 5% CO2 incubator. The plates were then removed from the incubator and equilibrated to room temperature for 15 minutes before reading on the FLIPR®. The plates were read on the FLIPR® for a total of 3 minutes. Baseline fluorescence was obtained on the FLIPR® for 10 seconds followed by addition (typically 10 μl) of each agonist by the FLIPR® and read for an additional 2 minutes and 50 seconds.

hTRPA1 [2] = target: T1, hTRPA1; experiment: Modulation of agonist-activated TRPA1 in HEK293 cells expressing hTRPA1 (membrane potential dye); format: cell-based; conditions: for inhibition of thymol activated TRPA1 (in words): HEK293 cells
Experimental: as §1
Appropriate control experiments are performed and can easily be determined by the skilled artisan.
HEK293 cells and CHO cells expressing TRPA1 were subjected to the assay described in Example 2.

hTRPA1 [3] = target: T1, hTRPA1; experiment: siRNA knockdown of hTRPA1 in hTRPA1 HEK293 cells, membrane potential dye response; format: cell-based; conditions: increasing concentrations
Experimental: HEK293 cells were transiently transfected with one of siRNA for hTRPA1, and one of Silencer pre-designed and validated siRNA (Ambion), GAPDH or negative siRNA control. 1×10^6 hTRPA1 stably transfected HEK 293 cells were plated in 35 mm dishes overnight. The next day 10 μM of each siRNA was transfected into these cells using siPORT Amine (Ambion) and incubated overnight. The following day, transfected cells were trypsinized and seeded into 384-well black, clear bottom, poly-D-lysine plates (Corning) at a density of 15,000 cells/well in a 20 μl volume and incubated in a 37° C./5% CO2 incubator overnight.
The cells were then loaded with membrane potential sensitive dye and subjected to the fluorescence assay described in Example 2.

parental HEK293 cells = experiment: Membrane potential dye fluorescence assay in parental (non-transfected) HEK293 cells; format: cell-based, human; conditions: cells not expressing TRPA1
mice = experiment: Taste aversion (lick) assay in mice; format: in vivo, mouse
Experimental: In this assay, the ability of identified lower alkyl phenols to evoke taste aversion in mice was measured. Mice were exposed to increasing concentrations of lower alkyl phenols.

hTRPM4B = target: T2, hTRPM4B (Homo sapiens, UniProt Q8TD43); experiment: Membrane potential dye fluorescence assay, CHO cells expressing hTRPM4B; format: cell-based
T2 construct: expressed in transfected cells
T2 sequence (Q8TD43 whole entry): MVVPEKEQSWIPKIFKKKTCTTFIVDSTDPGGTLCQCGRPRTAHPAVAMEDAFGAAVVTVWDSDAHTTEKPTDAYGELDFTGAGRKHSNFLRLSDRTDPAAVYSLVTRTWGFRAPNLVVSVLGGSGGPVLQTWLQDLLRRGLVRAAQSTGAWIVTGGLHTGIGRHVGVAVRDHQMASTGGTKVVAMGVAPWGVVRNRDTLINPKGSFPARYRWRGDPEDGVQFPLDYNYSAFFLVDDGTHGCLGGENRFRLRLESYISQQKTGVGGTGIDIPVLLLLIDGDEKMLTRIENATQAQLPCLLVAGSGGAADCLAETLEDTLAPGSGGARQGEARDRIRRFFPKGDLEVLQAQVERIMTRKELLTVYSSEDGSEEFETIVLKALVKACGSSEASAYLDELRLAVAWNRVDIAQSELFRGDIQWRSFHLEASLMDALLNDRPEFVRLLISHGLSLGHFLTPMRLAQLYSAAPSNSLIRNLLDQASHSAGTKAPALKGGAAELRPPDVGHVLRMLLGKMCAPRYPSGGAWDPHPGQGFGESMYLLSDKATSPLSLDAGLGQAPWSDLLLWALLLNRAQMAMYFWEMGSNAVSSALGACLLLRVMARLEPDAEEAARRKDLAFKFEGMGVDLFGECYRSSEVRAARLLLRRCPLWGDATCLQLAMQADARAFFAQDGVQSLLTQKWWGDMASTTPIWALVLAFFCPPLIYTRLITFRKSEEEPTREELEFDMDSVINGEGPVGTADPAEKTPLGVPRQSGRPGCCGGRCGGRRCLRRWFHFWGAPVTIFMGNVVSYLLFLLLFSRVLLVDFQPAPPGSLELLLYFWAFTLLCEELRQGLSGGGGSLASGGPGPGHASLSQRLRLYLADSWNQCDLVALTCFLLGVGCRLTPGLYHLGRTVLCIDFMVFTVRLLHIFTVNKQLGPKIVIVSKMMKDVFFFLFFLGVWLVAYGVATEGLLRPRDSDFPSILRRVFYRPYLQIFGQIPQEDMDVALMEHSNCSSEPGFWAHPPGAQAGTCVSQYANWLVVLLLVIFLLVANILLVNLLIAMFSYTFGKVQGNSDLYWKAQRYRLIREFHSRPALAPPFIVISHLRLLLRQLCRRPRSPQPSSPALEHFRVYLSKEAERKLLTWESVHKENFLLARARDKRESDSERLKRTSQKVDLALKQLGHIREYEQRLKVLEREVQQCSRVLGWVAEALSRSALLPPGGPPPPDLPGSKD
Experimental: as §1
(§2) HEK293 cells were stably transfected with one of hTRPA1, hTRPV1 or hTRPM5. CHO cells were stably transfected with one of hTRPM4B or TRPM5. Parental HEK293 and CHO cells were also used as a negative control.

hTRPV1 = target: T3, hTRPV1 (Homo sapiens, UniProt Q8NER1); experiment: Membrane potential dye fluorescence assay, HEK293 cells expressing hTRPV1; format: cell-based
T3 construct: expressed in transfected cells
T3 sequence (Q8NER1 whole entry): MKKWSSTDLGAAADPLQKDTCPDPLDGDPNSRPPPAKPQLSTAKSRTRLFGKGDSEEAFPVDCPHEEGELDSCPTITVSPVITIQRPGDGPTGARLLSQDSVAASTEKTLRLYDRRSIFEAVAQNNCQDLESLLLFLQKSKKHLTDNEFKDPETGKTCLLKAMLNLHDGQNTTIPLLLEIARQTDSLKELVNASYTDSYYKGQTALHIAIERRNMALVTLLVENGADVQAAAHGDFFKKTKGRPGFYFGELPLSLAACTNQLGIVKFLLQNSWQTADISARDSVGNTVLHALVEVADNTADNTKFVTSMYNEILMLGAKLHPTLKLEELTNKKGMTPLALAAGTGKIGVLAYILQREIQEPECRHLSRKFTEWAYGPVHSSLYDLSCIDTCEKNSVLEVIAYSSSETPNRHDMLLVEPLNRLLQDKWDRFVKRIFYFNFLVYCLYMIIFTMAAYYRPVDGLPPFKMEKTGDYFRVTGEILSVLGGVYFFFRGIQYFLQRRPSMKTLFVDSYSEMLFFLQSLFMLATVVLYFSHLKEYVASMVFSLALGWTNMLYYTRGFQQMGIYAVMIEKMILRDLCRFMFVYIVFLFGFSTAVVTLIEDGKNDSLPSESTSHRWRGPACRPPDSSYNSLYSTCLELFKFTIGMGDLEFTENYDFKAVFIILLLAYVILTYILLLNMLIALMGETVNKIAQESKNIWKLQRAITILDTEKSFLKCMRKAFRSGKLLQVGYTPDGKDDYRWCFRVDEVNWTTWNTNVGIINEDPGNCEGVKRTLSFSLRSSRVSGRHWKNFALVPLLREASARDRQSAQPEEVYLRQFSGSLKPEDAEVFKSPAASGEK
Experimental: as §1, §2

hTRPM5 = target: T4, hTRPM5 (Homo sapiens, UniProt Q9NZQ8); experiment: Membrane potential dye fluorescence assay, HEK293 or CHO cells expressing hTRPM5; format: cell-based
T4 construct: expressed in transfected cells
T4 sequence (Q9NZQ8 1-1165): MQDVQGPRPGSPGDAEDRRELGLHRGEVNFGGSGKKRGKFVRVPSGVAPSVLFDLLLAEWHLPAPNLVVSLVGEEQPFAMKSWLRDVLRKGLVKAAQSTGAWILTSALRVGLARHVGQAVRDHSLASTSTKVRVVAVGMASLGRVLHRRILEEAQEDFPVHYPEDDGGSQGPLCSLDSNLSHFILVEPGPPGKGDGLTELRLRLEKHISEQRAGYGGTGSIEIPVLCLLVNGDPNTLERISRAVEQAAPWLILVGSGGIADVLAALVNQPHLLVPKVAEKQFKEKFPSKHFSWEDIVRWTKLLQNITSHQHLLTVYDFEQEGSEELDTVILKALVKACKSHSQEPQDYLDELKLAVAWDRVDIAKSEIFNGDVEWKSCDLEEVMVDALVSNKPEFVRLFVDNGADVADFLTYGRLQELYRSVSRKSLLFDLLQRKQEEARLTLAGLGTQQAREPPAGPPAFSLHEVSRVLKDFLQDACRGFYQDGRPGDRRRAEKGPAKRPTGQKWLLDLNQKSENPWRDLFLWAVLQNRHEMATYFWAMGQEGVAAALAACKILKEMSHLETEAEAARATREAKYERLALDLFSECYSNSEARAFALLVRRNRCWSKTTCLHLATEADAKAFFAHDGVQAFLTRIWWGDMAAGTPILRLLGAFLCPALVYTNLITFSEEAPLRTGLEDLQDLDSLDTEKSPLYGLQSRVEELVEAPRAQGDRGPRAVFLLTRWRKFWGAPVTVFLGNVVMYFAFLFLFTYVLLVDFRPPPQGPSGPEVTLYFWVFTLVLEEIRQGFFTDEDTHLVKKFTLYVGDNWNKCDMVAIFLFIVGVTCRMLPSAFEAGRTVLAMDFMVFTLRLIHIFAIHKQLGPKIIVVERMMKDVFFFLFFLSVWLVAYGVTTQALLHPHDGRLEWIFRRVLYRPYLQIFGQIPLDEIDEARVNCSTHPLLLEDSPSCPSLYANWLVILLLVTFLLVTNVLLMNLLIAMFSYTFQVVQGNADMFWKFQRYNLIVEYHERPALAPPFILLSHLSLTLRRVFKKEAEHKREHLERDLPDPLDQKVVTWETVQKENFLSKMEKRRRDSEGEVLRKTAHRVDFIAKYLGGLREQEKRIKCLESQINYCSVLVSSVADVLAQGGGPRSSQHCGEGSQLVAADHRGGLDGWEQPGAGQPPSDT
Experimental: as §1, §2

[4] = hTRPA1 HEK293 cells, increase in fluorescence of membrane potential dye
[5] = HEK293 cells stably transfected with hTRPA1, FMP dye, FLIPR

SMILES: CC1(C(=O)O)CCC(C(=O)O)C1(C)C (stereo not shown) [camphoric acid]
- TRPA1 activation / agonist activity (in words) (hTRPA1 [1]; [4]): are TRPA1 agonists; also recorded: have agonist activity
- inhibition of thymol activated TRPA1 (in words) (hTRPA1 [2]): do not act as agonists of thymol activation of TRPA1

SMILES: CC12CCC(C(=O)C1=O)C2(C)C (stereo not shown) [camphorquinone]
- EC50 (hTRPA1 [1]; TRPA1 HEK293 cells, FIGS. 8C and 8D, read-out: EC50 of agonist response in TRPA1): ~300 µM
- TRPA1 activation / agonist activity (in words) (hTRPA1 [1]; [4]): triggers an agonist response; also recorded: are TRPA1 agonists; also recorded: have agonist activity
- inhibition of thymol activated TRPA1 (in words) (hTRPA1 [2]): do not act as agonists of thymol activation of TRPA1
- effect on subsequent thymol and cinnamaldehyde responses (in words) (hTRPA1 [2]; TRPA1 transfected HEK293 cells, compound first, then agonist): desensitizes thymol and cinnamaldehyde responses

SMILES: CC1(C)C2CCC1(CS(N)(=O)=O)C(=O)C2 (stereo not shown) [camphorsufomamide]
- TRPA1 activation / agonist activity (in words) (hTRPA1 [1]; [4]): have agonist activity
- inhibition of thymol activated TRPA1 (in words) (hTRPA1 [2]): do not act as agonists of thymol activation of TRPA1

SMILES: O=CC=Cc1ccccc1 [cinnamaldehyde]
- EC50 (hTRPA1 [1]; [5]): 7 µM
- fluorescence response of cells transfected with hTRPA1 siRNA versus GAPDH or negative siRNA control (in words) (hTRPA1 [3]): did not increase as much as
- response of parental HEK293 cells (in words) (parental HEK293 cells): no change in activation

SMILES: C=C(C)[C@H]1CC=C(C)CC1 [limonene]
- TRPA1 activation / agonist activity (in words) (hTRPA1 [1]; [4]): are TRPA1 agonists; also recorded: have agonist activity
- inhibition of thymol activated TRPA1 (in words) (hTRPA1 [2]): do not act as agonists of thymol activation of TRPA1

SMILES: Cc1ccccc1O [o-Cresol]
- taste aversion, licks/trial (in words) (mice; mice, increasing concentrations): a decrease in licks/trial
- EC50 (hTRPA1 [1]; [5]): 327 ± 132 µM
- TRPA1 activation / agonist activity (in words) (hTRPA1 [1]; [4]): generated an increase in relative fluorescence
- response of cells expressing hTRPM4B (in words) (hTRPM4B; CHO, increasing concentrations, FIG. 6): did not generate the same increase in relative fluorescence
- response of cells expressing hTRPV1 (in words) (hTRPV1; HEK293, increasing concentrations, FIG. 6): did not generate the same increase in relative fluorescence
- response of parental HEK293 cells (in words) (parental HEK293 cells): no response
- response of cells expressing hTRPM5 (in words) (hTRPM5; increasing concentrations, FIG. 6): did not generate the same increase in relative fluorescence

SMILES: Oc1ccccc1 [phenol]
- taste aversion, licks/trial (in words) (mice; mouse, in vivo): a decrease in licks/trial
- TRPA1 activation / agonist activity (in words) (hTRPA1 [1]): did not generate the same increase in relative fluorescence
- response of cells expressing hTRPM4B (in words) (hTRPM4B): did not generate the same increase in relative fluorescence
- response of cells expressing hTRPV1 (in words) (hTRPV1): generated an increase in relative fluorescence
- response of cells expressing hTRPM5 (in words) (hTRPM5): did not generate the same increase in relative fluorescence
